Measured values reported in US6844344B2, “Benzofuran derivatives” (Eli Lilly and Company, priority 1999, dated 2005).
Counter-ions that a name gives are not always drawn.

| SMILES | melting point |
| --- | --- |
| COc1cccc2sc([C@@H]3CCN(C[C@H](O)COc4cccc5c4OC(C)(C)C5)[C@@H](C)C3)cc12.O=C(O)C(=O)O [Example 9, (2S)-1-(2,3-Dihydro-2,2-dimethylbenzofuran-7-yl)oxy-3-[(2S,4R)-4-(4-methoxybenzo[b]thiophen-2-yl)-2-methylylpiperidinyl]-2-propanol Oxalate] | 83 to 86 °C |
| COc1cccc2sc(C3CCN(C[C@H](O)COc4cccc5c4OC(C)(C)C5)[C@@H](C)C3)cc12.O=C(O)C(=O)O (stereo in doubt) [Example 8, (2S)-(+)-1-(2,3-Dihydro-2,2-dimethylbenzofuran-7-yl)oxy-3-[(2S, 4R)-4-(4-methoxybenzo[b]thiophen-2-yl)-2-methylpiperidinyl]-2-propanol Oxalate] | 145 to 148 °C |
| COc1ccc2cc([C@H]3CCN(C[C@H](O)COc4cccc5occc45)[C@@H](C)C3)sc2c1.O=C(O)C(=O)O [Example 3, (2S)-(+)-1-(Benzofuran-4-yl)oxy-3-[(2S.4S)-4-(6-methoxybenzo[b]thiophen-2-yl)-2-methylpiperidinyl]-2-propanol Oxalate] | 97 to 102 °C |
| COc1ccc2cc([C@@H]3CCN(C[C@H](O)COc4cccc5occc45)[C@@H](C)C3)sc2c1.O=C(O)C(=O)O [Example 4, (2S)-1-(Benzofuran-4-yl)oxy-3-[(2S,4R)-4-(6-methoxybenzo[b]thiophen-2-yl)-2-methylpiperidinyl]-2-propanol Oxalate] | 130 to 133 °C |
| COc1cccc2sc([C@@H]3CCN(C[C@H](O)COc4cccc5oc(C)cc45)[C@H](C)C3)cc12 (as salt: oxalate) [Example 26, (2S)-(−)-3-[(2R,4R)-4-(4-Methoxybenzo[b]thiophen-2-yl)-2-methylpiperidin-1-yl]-1-(2-methylbenzofuran-4-yl)oxy-2-propanol] | 101.2 to 109.5 °C |
| COc1cccc2sc([C@@H]3CCN(C[C@H](O)COc4cccc5c4OC(C)(C)C5)[C@H](C)C3)cc12.O=C(O)C(=O)O [Example 7, (2S)-(−)-1-(2,3-Dihydro-2,2-dimethylbenzofuran-7-yl)oxy-3-[(2R,4R)-4-(4-methoxybenzo[b]thiophen-2-yl)-2-methylpiperidinyl]-2-propanol Oxalate] | 88 to 93 °C |
| COc1cccc2sc([C@H]3CCN(C[C@H](O)COc4cccc5oc(C)cc45)[C@@H](C)C3)cc12 (as salt: oxalate) [Example 27, (2S)-(+)-3-[(2S,4S)-4-(4-Methoxybenzo[b]thiophen-2-yl)-2-methylpiperidin-1-yl]-1-(2-methylbenzofuran-4-yl)oxy-2-propanol] | 98 °C (dec.) |
| COc1ccc2cc([C@@H]3CCN(C[C@H](O)COc4cccc5occc45)[C@H](C)C3)sc2c1.O=C(O)C(=O)O [Example 2, (2S)-(−)-1-(Benzofuran-4-yl)oxy-3-[(2R,4R)-4-(6-methoxybenzo[b]thiophen-2-yl)-2-methylpiperidinyl]-2-propanol Oxalate] | 97 to 102 °C (dec.) |
| COc1cccc2sc([C@H]3CCN(C[C@H](O)COc4cccc5c4OC(C)(C)C5)[C@H](C)C3)cc12.O=C(O)C(=O)O [Example 10, (2S)-1-(2,3-Dihydro-2,2-dimethylbenzofuran-7-yl)oxy-3-[(2R,4S)-4-(4-methoxybenzo[b]thiophen-2-yl)-2-methylpiperidinyl]-2-propanol Oxalate] | 93 to 96 °C |
| O=C(O)C(=O)O.O[C@H](COc1cccc2occc12)CN1CCC(c2cc3ccc(F)cc3s2)CC1 [Example 6, (2S)-(+)-1-(Benzofuran-4-yl)oxy-3-[4-(6-fluorobenzo[b]thiophen-2-yl)piperidinyl]-2-propanol Oxalate] | 196 to 198 °C (dec.) |

More lines, now with the values ahead:

| melting point | SMILES |
| --- | --- |
| 83.5 °C (dec.) | COc1cccc2sc(C3CCN(C[C@H](O)COc4cccc5oc(C)cc45)C(C)(C)C3)cc12 (single isomer, unassigned; isomer 2) (as salt: hydrochloride) [Example 35] |
| 101.1 °C (dec.) | COc1cccc2sc(C3CCN(C[C@H](O)COc4cccc5oc(C)cc45)C(C)(C)C3)cc12 (single isomer, unassigned; isomer 1) (as salt: hydrochloride) [Example 34] |
| 78.5 °C (dec.) | Cc1cc2c(OC[C@@H](O)CN3CC[C@@H](c4cc5cc(Cl)ccc5s4)C[C@@H]3C)cccc2o1 (as salt: salt) [Example 32, (2S)-3-[(2S,4R)-4-(5-Chlorobenzo[b]thiophen-2-yl)-2-methylpiperidin-1-yl]-1-(2-methylbenzofuran-4-yl)oxy-2-propanol] |
| 92.5 °C (dec.) | COc1cccc2sc([C@H]3CCN(C[C@H](O)COc4cccc5oc(C)cc45)[C@H](C)C3)cc12 (as salt: oxalate) [Example 29, (2S)-(+)-3-[(2R,4S)-4-(4-Methoxybenzo[b]thiophen-2-yl)-2-methylpiperidin-1-yl]-1-(2-methylbenzofuran-4-yl)oxy-2-propanol] |
| 88.5 °C (dec.) | Cc1cc2c(OC[C@@H](O)CN3CC[C@@H](c4cc5cc(Cl)ccc5s4)C[C@H]3C)cccc2o1 (as salt: salt) [Example 30, (2S)-(−)-3-[(2R,4R)-4-(5-Chlorobenzo[b]thiophen-2-yl)-2-methylpiperidin-1-yl]-1-(2-methylbenzofuran-4-yl)oxy-2-propanol] |
| 204.1 to 208.3 °C | Cc1cc2c(OC[C@@H](O)CN3CC[C@H](c4cc5cc(Cl)ccc5s4)C[C@@H]3C)cccc2o1 (as salt: salt) [Example 31, (2S)-3-[(2S,4S)-4-(5-Chlorobenzo[b]thiophen-2-yl)-2-methylpiperidin-1-yl]-1-(2-methylbenzofuran-4-yl)oxy-2-propanol] |
| 81.4 °C (dec.) | Cc1cc2c(OC[C@@H](O)CN3CC[C@H](c4cc5cc(Cl)ccc5s4)C[C@H]3C)cccc2o1 (as salt: salt) [Example 33, (2S)-(−)-3-[(2R,4S)-4-(5-Chloro-benzo[b]thiophen-2-yl)-2-methylpiperidin-1-yl]-1-(2-methylbenzofuran-4-yl)oxy-2-propanol] |
| 99.2 to 103 °C | COc1cccc2sc([C@@H]3CCN(C[C@H](O)COc4cccc5oc(C)cc45)[C@@H](C)C3)cc12 (as salt: oxalate) [Example 28, (2S)-(−)-3-[(2S,4R)-4-(4-Methoxybenzo[b]thiophen-2-yl)-2-methylpiperidin-1-yl]-1-(2-methylbenzofuran-4-yl)oxy-2-propanol] |
